Results reported in US5013756A, “Catechol derivatives, a process of preparation thereof, and therapeutical compositions containing the same” (priority 1985, dated 1991).

How the values were obtained:
Assay type in all cases: biochemical
soybean lipoxygenase = molecular target: T1, soybean lipoxygenase (Glycine max, UniProt P08170); assay: In vitro screening of compounds as potential inhibitors of soybean lipoxygenase (spectrophotometric assay, 15-HPETE at 236 nm); conditions: pH 9.00, 10^-4 M arachidonic acid, 90 min, room temperature; for IC50: IC50 (concentration of 50% inhibition)
T1 sequence (P08170 1-839): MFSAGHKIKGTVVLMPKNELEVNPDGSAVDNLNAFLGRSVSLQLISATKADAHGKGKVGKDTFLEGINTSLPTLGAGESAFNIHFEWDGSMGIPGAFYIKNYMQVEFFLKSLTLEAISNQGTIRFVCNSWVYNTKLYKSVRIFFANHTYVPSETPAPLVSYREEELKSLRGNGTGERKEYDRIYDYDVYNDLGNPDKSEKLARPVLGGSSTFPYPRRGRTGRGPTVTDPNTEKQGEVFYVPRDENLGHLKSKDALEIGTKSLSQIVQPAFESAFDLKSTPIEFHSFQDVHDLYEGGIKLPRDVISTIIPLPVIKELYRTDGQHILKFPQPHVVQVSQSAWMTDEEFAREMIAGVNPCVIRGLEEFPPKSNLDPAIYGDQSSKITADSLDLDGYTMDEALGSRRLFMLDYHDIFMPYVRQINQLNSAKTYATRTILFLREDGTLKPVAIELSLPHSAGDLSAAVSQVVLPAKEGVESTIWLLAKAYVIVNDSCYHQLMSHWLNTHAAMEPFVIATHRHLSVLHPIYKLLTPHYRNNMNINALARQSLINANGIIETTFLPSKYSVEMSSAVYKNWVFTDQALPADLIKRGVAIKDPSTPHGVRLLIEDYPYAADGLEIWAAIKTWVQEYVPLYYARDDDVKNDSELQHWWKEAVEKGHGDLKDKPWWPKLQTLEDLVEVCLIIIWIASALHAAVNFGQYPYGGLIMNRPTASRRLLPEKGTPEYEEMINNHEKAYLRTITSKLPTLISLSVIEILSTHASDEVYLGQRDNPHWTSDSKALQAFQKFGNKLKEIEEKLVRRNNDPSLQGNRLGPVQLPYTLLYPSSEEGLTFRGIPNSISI
Procedure: A spectrophotometric method has been developed to determine the enzyme activity according to Corey E.J. et al. (J. Amer. Chem. Soc, 104, 1750-1752; 1982). In a final volume of 1.8 ml was mixed 0.2 M of aerated Borax buffer pH =9.00 with 500 units of soybean lipoxygenase. When inhibitors were tested, they were added in 0.6 ml at final concentrations ranging from 10^-3 M to 10^-8 M followed by a preincubation of 10 minutes at room temperature. The reaction was initiated by 10^-4 M arachidonic acid. Following incubation at room temperature for 90 minutes, 15-HPETE was determined by absorbance measurements at 236 nm.
This method was validated with known inhibitors of lipoxygenase. For each test substance a control was included with boiled lipoxygenase in order to take into account any absorption of the compound at the wavelength used.

xanthine oxidase = xanthine oxidase (Bos taurus, UniProt P80457); assay: In vitro screening of compounds as potential inhibitors of xanthine oxidase; conditions: xanthine oxidase 0.01 units/ml, xanthine 5.10^-5 M, pH 7.4
Sequence of xanthine oxidase (P80457 whole entry): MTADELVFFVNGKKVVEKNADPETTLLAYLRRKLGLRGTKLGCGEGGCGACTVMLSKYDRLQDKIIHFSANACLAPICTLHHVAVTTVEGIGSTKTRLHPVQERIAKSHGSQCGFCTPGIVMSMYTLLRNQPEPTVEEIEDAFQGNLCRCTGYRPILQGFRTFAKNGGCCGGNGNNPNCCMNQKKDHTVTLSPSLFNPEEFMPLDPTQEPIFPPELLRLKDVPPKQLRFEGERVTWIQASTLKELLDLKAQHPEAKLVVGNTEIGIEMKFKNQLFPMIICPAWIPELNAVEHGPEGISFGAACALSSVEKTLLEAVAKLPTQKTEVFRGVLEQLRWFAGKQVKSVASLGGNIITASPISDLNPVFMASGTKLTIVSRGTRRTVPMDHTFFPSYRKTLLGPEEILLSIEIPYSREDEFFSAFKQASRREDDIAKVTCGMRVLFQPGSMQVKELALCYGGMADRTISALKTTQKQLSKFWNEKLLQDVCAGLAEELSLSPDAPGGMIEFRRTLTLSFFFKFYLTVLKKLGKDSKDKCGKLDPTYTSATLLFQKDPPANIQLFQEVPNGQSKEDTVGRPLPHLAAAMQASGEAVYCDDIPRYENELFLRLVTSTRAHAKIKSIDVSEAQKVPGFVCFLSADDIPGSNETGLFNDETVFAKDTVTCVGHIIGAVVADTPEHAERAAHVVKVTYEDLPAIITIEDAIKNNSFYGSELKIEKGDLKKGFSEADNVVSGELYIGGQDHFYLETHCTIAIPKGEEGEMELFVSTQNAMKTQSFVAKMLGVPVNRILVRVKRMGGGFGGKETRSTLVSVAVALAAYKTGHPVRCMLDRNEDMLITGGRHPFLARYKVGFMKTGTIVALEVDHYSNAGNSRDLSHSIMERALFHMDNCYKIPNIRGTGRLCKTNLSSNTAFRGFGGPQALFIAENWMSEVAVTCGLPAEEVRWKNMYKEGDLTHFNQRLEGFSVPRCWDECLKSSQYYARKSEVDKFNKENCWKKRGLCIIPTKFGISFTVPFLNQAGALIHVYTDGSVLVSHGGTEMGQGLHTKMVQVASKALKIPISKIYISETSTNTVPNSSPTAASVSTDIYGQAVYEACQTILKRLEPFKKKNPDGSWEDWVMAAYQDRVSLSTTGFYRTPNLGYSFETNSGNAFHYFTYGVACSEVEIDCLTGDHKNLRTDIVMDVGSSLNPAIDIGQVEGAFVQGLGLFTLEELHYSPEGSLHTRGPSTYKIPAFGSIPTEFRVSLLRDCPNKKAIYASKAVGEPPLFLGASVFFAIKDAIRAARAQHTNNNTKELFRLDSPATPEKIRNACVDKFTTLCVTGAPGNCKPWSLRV
Excerpt: A unit of activity was defined as a change of 0.001 units/minute.

[1] = molecular target: T2, cyclooxygenase (human platelets microsomes) (Homo sapiens, UniProt P23219); assay: Cycloxygenase inhibition in human platelets microsomes; conditions: cyclooxygenase (PGE2/TxB2), pH 7.9, 37° C.
T2 construct: human platelets microsomes; from tissue; host or cells: human platelet microsomes (microsomal powder)
T2 sequence (P23219 24-599): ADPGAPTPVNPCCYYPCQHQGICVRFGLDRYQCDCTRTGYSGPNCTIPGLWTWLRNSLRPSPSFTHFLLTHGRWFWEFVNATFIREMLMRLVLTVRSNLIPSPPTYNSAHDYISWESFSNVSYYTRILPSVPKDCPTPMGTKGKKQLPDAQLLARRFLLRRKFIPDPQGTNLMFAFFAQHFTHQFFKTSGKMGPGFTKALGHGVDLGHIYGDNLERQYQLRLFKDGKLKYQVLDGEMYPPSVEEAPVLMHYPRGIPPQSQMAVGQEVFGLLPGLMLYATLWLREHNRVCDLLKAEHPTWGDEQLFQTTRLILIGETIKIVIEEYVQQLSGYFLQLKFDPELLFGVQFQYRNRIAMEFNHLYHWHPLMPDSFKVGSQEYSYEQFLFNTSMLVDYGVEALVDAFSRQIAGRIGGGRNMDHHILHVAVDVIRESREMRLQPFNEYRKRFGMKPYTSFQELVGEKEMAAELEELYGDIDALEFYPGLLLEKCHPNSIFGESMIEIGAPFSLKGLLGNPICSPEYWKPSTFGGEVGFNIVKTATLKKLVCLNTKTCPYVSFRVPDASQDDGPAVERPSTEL
Procedure: The enzymatic assay was carried out in silanized glassware according to the procedure of P. Ho, P. Walters and H, Sullivan (Prostaglandins 12, 951 1976). The reaction mixture containing 50 mM Tris HCl buffer, pH 7.9, 5mM 2-Tryptophan, […] methemoglobin, 0.2 mg of microsomal powder, and the test compound in a total volume of 0.2 ml was incubated at 37° C. for 5 minutes before the addition of 10 μl of 20 μM^14 C arachidonic acid (0.08 μCI). After 5 minute incubation, the reaction was terminated by the addition of 10 μl of 1M citric acid.
The mixture was extracted four times with 0.5 ml of anhydrous diethyl ether and dried with sodium sulphate. The residue was resuspended in approximately 40 μl of ether and submitted to chromatography on silica gel plates. The elution system consisted of diethyl ether/methanol/acetic acid (90:1:2). The RF values were measured relative to arachidonic acid. Thin layer chromatography plates (TLC) were exposed on LKB ultrafilm for about 24 hours. Partial identification of the spots were carried out by running standards (PGA2, PGB2, PGE2, PGF2c, PXB2, arachidonic acid) in the same solvent system. Quantitative results were obtained by scanning the developed film with a transmission densitometer (EC Apparatus 910) interfaced with a Hewlett Packard 3390A integrator.
The activity of the substances of the cyclooxygenase is quantified by the 2 spots corresponding to PGE2 and TxB2 (ratio PGE2 /TxB2).

Row | IC50 (soybean lipoxygenase) [µM] | Compound | also measured
1 | 27.6 | CCCCCCC(C)Sc1ccc(O)c(O)c1 (stereo not shown) [drawing 9] | –
2 | 24.5 | CCCCCCC(C)Sc1ccc(O)c(O)c1 (stereo not shown) [drawing 10] | –

The next lines start with the molecule.

Row | Compound | IC50 (soybean lipoxygenase) [µM] | also measured
3 | N=C(N)Sc1ccc(O)c(O)c1 | – | IC50 (concentration of 50% inhibition) (soybean lipoxygenase): Not active
4 | S=C(N=Nc1ccccc1)NNc1ccccc1 [Diphenylthiocarbazone, reference compound] | 1.61 | –
5 | Nc1nc2ncc(CNc3ccc(C(=O)N[C@@H](CCC(=O)O)C(=O)O)cc3)nc2c(=O)[nH]1 [Folic acid, reference compound] | – | IC50 (xanthine oxidase): 0.676 µM
6 | Oc1ccc(S)cc1O [drawing 6] | 93 | –
7 | CCC(C)CSc1ccc(O)c(O)c1 (stereo not shown) [drawing 7] | 104 | –
8 | CC1CCC(C(C)C)C(Sc2ccc(O)c(O)c2)C1 (stereo not shown) [drawing 8] | 24.1 | –
9 | Oc1ccc(S)cc1O [drawing 20] | – | IC50 [1]: 9.23 µM
10 | CCC(C)CSc1ccc(O)c(O)c1 (stereo not shown) [drawing 21] | – | IC50 [1]: 4.31 µM
